Among the test systems are DU-145 prostate; HT29 colon; MCF7 breast; OVCAR-8 ovarian; SR leukemia; U251 CNS; UACC-257 melanoma; RXF 393 renal; SK-OV-3 ovarian; BT-549 breast.
Common to all, as to test: NCI anticancer screen, dose series, 48 h

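Assay format: 96-well plates, 48-hour exposure. GI50 = concentration required for 50% inhibition of growth. TGI marks complete inhibition of growth.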 Where only a bound is given, the exact number is not on record here.

Consider `Nc1ccc(C(=O)O)cc1`, for which the TGI in the test with DU-145 prostate, in the test on HT29 colon, in the test on MCF7 breast, in the test with OVCAR-8 ovarian, with SR leukemia and with U251 CNS was more than 100 µM throughout. Besides, the TGI in the test on UACC-257 melanoma was more than 100 µM.
For the compound `CSc1nc(-c2ccccc2)nc(=[N+]2CCOCC2)s1`, the TGI is more than 100 µM in the test with HT29 colon; more than 100 µM in the test with OVCAR-8 ovarian; more than 100 µM with RXF 393 renal; more than 100 µM with SK-OV-3 ovarian; 67.5 µM in the test on SR leukemia; more than 100 µM in the test with U251 CNS.
Consider `CCN(CCC#N)C(=O)Nc1ccccc1`, for which the TGI in the test with BT-549 breast, in the test on DU-145 prostate, in the test with HT29 colon, in the test with MCF7 breast, in the test on OVCAR-8 ovarian and in the test with RXF 393 renal was more than 100 µM each time. The TGI in the test with SK-OV-3 ovarian, with U251 CNS and with UACC-257 melanoma was more than 100 µM in each case.
`CC(C)(C)CC(C)(C)NCC(O)COc1ccc(C(C)(C)c2ccc(OCC(O)CNC(C)(C)CC(C)(C)C)cc2)cc1` (stereo unspecified): the GI50 with DU-145 prostate is 1.39 µM. For the same compound, the TGI stood at 2.75 µM in the test on DU-145 prostate; 1.42 µM in the test on HT29 colon; 3.25 µM with OVCAR-8 ovarian; 2.75 µM with RXF 393 renal; 3.24 µM in the test with SK-OV-3 ovarian; 2.2 µM in the test with U251 CNS.
For `O=S(=O)(O)c1cc(N=[N+]([O-])c2ccc(N=Nc3ccccc3)cc2S(=O)(=O)O)ccc1/C=C/c1ccc(N=[N+]([O-])c2ccc(N=Nc3ccccc3)cc2S(=O)(=O)O)cc1S(=O)(=O)O`, the TGI in the test on HT29 colon, in the test with MCF7 breast, in the test on OVCAR-8 ovarian, with RXF 393 renal, in the test with SK-OV-3 ovarian and in the test on U251 CNS was more than 100 µM in each case. The TGI with UACC-257 melanoma was more than 100 µM.
In the case of `COc1cccc(N(CN2C(=O)CCC2OC)C(C)=O)c1` (stereo unspecified), the TGI with DU-145 prostate, in the test on HT29 colon, in the test on MCF7 breast, in the test on OVCAR-8 ovarian, in the test on RXF 393 renal and in the test on SK-OV-3 ovarian was more than 100 µM each time. The TGI with SR leukemia, with U251 CNS and in the test with UACC-257 melanoma was more than 100 µM each time.
For `N=C(N)c1ccc(-c2ccc(-c3ccc(Cl)cc3Cl)s2)nc1`, the GI50 in the test on BT-549 breast is 6.53 µM; in the test on DU-145 prostate, 1.85 µM; with OVCAR-8 ovarian it was 2.51 µM; with RXF 393 renal it was 1.67 µM; with SK-OV-3 ovarian, 8 µM. Also, the TGI in the test with BT-549 breast was determined as 28.6 µM; with DU-145 prostate it was 3.27 µM; in the test on OVCAR-8 ovarian, 6.41 µM; in the test with RXF 393 renal it was 3.06 µM; in the test on SK-OV-3 ovarian, 25.6 µM.
For `c1ccc(OCc2nnc(CCCCCCCCc3nnc(COc4ccccc4)o3)o2)cc1`, the TGI is more than 100 µM in the test with BT-549 breast; more than 100 µM in the test with DU-145 prostate; more than 100 µM with HT29 colon; more than 100 µM in the test with MCF7 breast; more than 100 µM in the test on OVCAR-8 ovarian; 30.8 µM with RXF 393 renal. For the same compound, the TGI with SK-OV-3 ovarian, with U251 CNS and in the test with UACC-257 melanoma was more than 100 µM each time.
For `CCCCCCCCCCCCCCCCCCNc1nc(=O)n(C2CC(OP(=O)(O)OCC3OC(n4cc(F)c(=O)[nH]c4=O)CC3O)C(CO)O2)cc1F` (stereo unspecified), the TGI in the test on DU-145 prostate is more than 100 µM; in the test on HT29 colon, 48.4 µM; with MCF7 breast, more than 100 µM; in the test with OVCAR-8 ovarian, 73.3 µM; in the test with RXF 393 renal, 63 µM; in the test on SK-OV-3 ovarian it was more than 100 µM. In addition, the TGI in the test on SR leukemia is 35.1 µM; in the test on U251 CNS it was 65.2 µM; with UACC-257 melanoma it was more than 100 µM.
Regarding `Cc1ccc2c(c1)Nc1ccccc1P2(=O)O`, the TGI with DU-145 prostate, in the test with HT29 colon, with OVCAR-8 ovarian, with RXF 393 renal, in the test on SK-OV-3 ovarian and with SR leukemia was more than 100 µM each time. In addition, the TGI with U251 CNS and in the test with UACC-257 melanoma was more than 100 µM throughout.
Turning to `CCOP(=O)(Cc1nc(C#N)c(N)o1)OCC`, the TGI with DU-145 prostate, with HT29 colon, in the test with MCF7 breast, in the test with RXF 393 renal, with SK-OV-3 ovarian and in the test with SR leukemia was more than 100 µM in each case. The TGI in the test with U251 CNS and in the test on UACC-257 melanoma was more than 100 µM throughout.
In the case of `Cc1ccsc1/C=N/Nc1cc(C)c2ccccc2n1`, the TGI in the test with BT-549 breast came out at 44.8 µM; in the test on DU-145 prostate, 32 µM; in the test on HT29 colon, 15 µM; in the test on MCF7 breast, 30.4 µM; in the test with OVCAR-8 ovarian it was 32.7 µM; with RXF 393 renal, 47.8 µM. Further, the TGI in the test with SK-OV-3 ovarian stood at 35.6 µM; in the test on U251 CNS, 31.4 µM; in the test on UACC-257 melanoma, 21 µM.
Turning to `O=[N+]([O-])c1ccc(Nc2cccc3c2[nH]c2c(-c4ccccc4)nccc23)c([N+](=O)[O-])c1`, the TGI in the test with HT29 colon, with MCF7 breast, in the test with OVCAR-8 ovarian, with RXF 393 renal, with SK-OV-3 ovarian and in the test with U251 CNS was more than 100 µM throughout. Also, the TGI in the test on UACC-257 melanoma was more than 100 µM.
Take `ClC1=C(Cl)C2OC3C=CCC3OC2C(Cl)=C1Cl` (stereo unspecified): the TGI in the test on DU-145 prostate was more than 100 µM; in the test with HT29 colon it was 72.1 µM; with MCF7 breast it was more than 100 µM; with OVCAR-8 ovarian, more than 100 µM; in the test with RXF 393 renal it was more than 100 µM; in the test with SK-OV-3 ovarian it was more than 100 µM. Further, the TGI with SR leukemia, with U251 CNS and in the test with UACC-257 melanoma was more than 100 µM throughout.
As for `COc1ccc(C2=NN(c3nsc4ccccc34)C(=O)CC2)cc1`, the TGI in the test on HT29 colon, in the test on OVCAR-8 ovarian, in the test on RXF 393 renal, with SR leukemia, with U251 CNS and with UACC-257 melanoma was more than 100 µM in each case.
`Cc1ccc(C(=O)N/N=C(\N=Nc2ccccc2C(=O)O)c2ccc(N(C)C)cc2)cc1`: the TGI with BT-549 breast, with HT29 colon, in the test on MCF7 breast, with OVCAR-8 ovarian, in the test with U251 CNS and in the test with UACC-257 melanoma was more than 100 µM each time.

For the origin of these results see PubChem BioAssay (NCI).
